Experimental data from US9957214B2, “Multifunctional radical quenchers” (ARIZONA BOARD OF REGENTS ON BEHALF OF ARIZONA STATE …, priority 2012, dated 2018).

System: Hsp90
Assay: Hsp90 client protein immunodetection assay (Her2 degradation, Hsp70 induction) in BT474 cells
Format: cell-based, human
Details: 24 h
Experimental: FIG. 9. A cell-based immunodetection assay was used to monitor Hsp90 client protein, Her2 protein degradation (A), and the induction of a heat shock response Hsp70 protein levels (B) in Her2-overexpressing BT474 cell line. The effects of 40 and geldanamycin were compared to vehicle (DMSO) after treatment with varying concentrations of the compounds for 24 h. Each measurement is an average of three independent experiments run in […].
The classic method of following the cellular activity of Hsp90 inhibitors is through the proteasome-dependent degradation of Hsp90 client proteins. […] Another hallmark of Hsp90 inhibition is the induction of a heat shock response, which was evaluated by determining the Hsp70 protein levels by […]. […] The plates were read immediately on a luminometer (Clarity™ luminescence microplate reader). Readings from wells containing only control IgG and the corresponding horseradish peroxidase-linked secondary antibody were set as background and subtracted from all measured values. The average chemiluminescence signals obtained were expressed as a percentage of Her2 reduction or Hsp70 induction in comparison to vehicle (DMSO). Values were calculated from three independent experiments performed in triplicate.

## COC1=C2CCCCCCCCCCCCCCCNC(=CC1=O)C2=O [Compound 40]
  Hsp90 inhibition judged by client proteins Her2 and Hsp70 (in words): did not inhibit Hsp90
